Assay results from EPA's ToxValDB 9.5 (doi:10.2903/j.efsa.2008.145r).
Values after ≈ are worked out from the molar mass of the structure shown.

Key:
Apis mellifera = details: acute; duration: 48 hours; oral; unspecified; mortality
Bibionidae = details: chronic/long-term; duration: 28 days
Coturnix japonica = details: acute, oral, mortality
Daphnia magna = details: chronic/long-term; duration: 21 days; reproduction
Tagia sp. = details: acute; duration: 14 days; mortality

Question: Which results are given for Cc1cccc(C)c1N(Cn1cccn1)C(=O)CCl [Metazachlor]?
Answer: LD50 (Apis mellifera): > 72.2 µg/piece; NOEC (Bibionidae): 7.93 mg/kg; LD50 (Colinus virginianus; acute, oral, mortality): > 2000 mg/kg; NOEL (Colinus virginianus; reproduction developmental): 76.5 mg/kg-day; LD50 (Coturnix japonica; diet): > 449 mg/kg-day; LD50 (Coturnix japonica): > 2000 mg/kg; NOEC (Daphnia magna): 0.1 mg/L; LC50 (Oncorhynchus mykiss; acute, duration: 96 hours, mortality): 8.5 µg/mL (≈ 30.6 µM); NOEC (Oncorhynchus mykiss; chronic/long-term, duration: 28 days, growth): 2.15 mg/L; LD50 (Rattus norvegicus; acute, mortality): > 2000 mg/kg; NOAEL (Rattus norvegicus; chronic): 79 mg/kg-day; NOAEL (Rattus norvegicus; chronic, duration: 2 years, organ weight): 8.5 mg/kg-day; NOAEL (Rattus norvegicus; developmental, development): 50 mg/kg-day; NOAEL (Rattus norvegicus; subchronic, duration: 90 days, oral, organ weight): 21 mg/kg-day; LC50 (Tagia sp.): > 1000 mg/kg
